Assay results: patent US6858591B2, “Antibiotic AA 896 analogs” (Wyeth Holdings Corporation, priority 2001, dated 2005)
In brackets after ≈: the same amount, converted by molar mass. Like-named read-outs stand apart in the source and are kept apart here.

Tests used:
Assay in all cases: In vitro MIC, broth dilution
Type in all cases: cell-based
E. coli GC 4559 = conditions: Escherichia coli, GC4559
E. coli GC 4560 = conditions: Escherichia coli, GC4560
E. coli GC 3226 = conditions: Escherichia coli, GC3226
S. marcescens GC 4077 = conditions: Serratia marcescens, GC4077
C. albicans GC 3066 = conditions: Candida albicans, GC3066
M. morganii GC 4531 = conditions: Morganella morganii, GC4531
K. pneumoniae GC 4534 = conditions: Klebsiella pneumoniae, GC4534
E. cloacae GC 3783 = conditions: Enterobacter cloacae, GC3783
P. aeruginosa GC 4532 = conditions: Pseudomonas aeruginosa, GC4532
CNS GC 4537 = tested on: CNS GC 4537
In short: (§1)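 Test strains at 5×10^5 CFU/ml face antibiotic from 64 down to 0.06 μg/ml in Mueller-Hinton II, NCCLS broth dilution. MIC is read as the lowest growth-inhibiting concentration after 18 h at 35 °C.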

CNS GC 4538 = tested on: CNS GC 4538
In short: as §1

CNS GC 4547 = tested on: CNS GC 4547
In short: as §1

E. faecalis GC 2242 = conditions: Enterococcus faecalis, GC2242
In short: as §1

E. faecalis GC 4555 = conditions: Enterococcus faecalis, GC4555
In short: as §1

E. faecalis GC 842 = conditions: Enterococcus faecalis, GC842
In short: as §1

S. aureus GC 1131 = conditions: Staphylococcus aureus, GC1131
In short: as §1

S. aureus GC 2216 = conditions: Staphylococcus aureus, GC2216
In short: as §1

S. aureus GC 4536 = conditions: Staphylococcus aureus, GC4536
In short: as §1

E. coli GC 2203 = conditions: Escherichia coli, GC2203
P. aeruginosa GC 2214 = conditions: Pseudomonas aeruginosa, GC2214
[1] = S. marcescens GC 4077, read-out: MIC
[2] = C. albicans GC 3066, read-out: MIC
[3] = M. morganii GC 4531, read-out: MIC
[4] = K. pneumoniae GC 4534, read-out: MIC
[5] = E. cloacae GC 3783, read-out: MIC
[6] = P. aeruginosa GC 4532, read-out: MIC
[7] = E. faecalis GC 2242, read-out: MIC
[8] = E. faecalis GC 4555, read-out: MIC
[9] = E. faecalis GC 842, read-out: MIC
[10] = S. aureus GC 1131, read-out: MIC
[11] = S. aureus GC 2216, read-out: MIC
[12] = S. aureus GC 4536, read-out: MIC
[13] = P. aeruginosa GC 2214, read-out: MIC

MIC (E. coli GC 4559; E. coli GC 4559, read-out: MIC)	MIC (E. coli GC 4560; E. coli GC 4560, read-out: MIC)	MIC (E. coli GC 3226; E. coli GC 3226, read-out: MIC)	MIC (S. marcescens GC 4077; [1])	MIC (C. albicans GC 3066; [2])	MIC (M. morganii GC 4531; [3])	MIC (K. pneumoniae GC 4534; [4])	MIC (E. cloacae GC 3783; [5])	MIC (P. aeruginosa GC 4532; [6])	MIC (CNS GC 4537; CNS GC 4537, read-out: MIC)	MIC (CNS GC 4538; CNS GC 4538, read-out: MIC)	MIC (CNS GC 4547; CNS GC 4547, read-out: MIC)	MIC (E. faecalis GC 2242; [7])	MIC (E. faecalis GC 4555; [8])	MIC (E. faecalis GC 842; [9])	MIC (S. aureus GC 1131; [10])	MIC (S. aureus GC 2216; [11])	MIC (S. aureus GC 4536; [12])	MIC (E. coli GC 2203; E. coli GC 2203, read-out: MIC)	MIC (P. aeruginosa GC 2214; [13])	SMILES	also measured
> 128 µg/mL	> 128 µg/mL	> 128 µg/mL	> 128 µg/mL	> 128 µg/mL	> 128 µg/mL	> 128 µg/mL	> 128 µg/mL	> 128 µg/mL	> 128 µg/mL	> 128 µg/mL	> 128 µg/mL	> 128 µg/mL	> 128 µg/mL	> 128 µg/mL	> 128 µg/mL	> 128 µg/mL	> 128 µg/mL	> 128 µg/mL	> 128 µg/mL	CCCCCCCCCCCCCC(=O)OC(C)[C@H](NC(=O)OCc1ccccc1)C(=O)NCCCNC(C(=O)OCC)C(O)C1O[C@@H](n2ccc(=O)[nH]c2=O)[C@H](OC(C)=O)[C@@H]1OC(C)=O (stereo in doubt) [Example 58, Ethyl (5S)-12-[(R)-[(2R,3R,4R,5R)-3,4-bis(acetyloxy)-5-(2,4-dioxo-3,4-dihydropyrimidin-1(2 h)-yl)tetrahydrofuran-2-yl](hydroxy)methyl]-3,6-dioxo-1-phenyl-5-[(1S)-1-(tetradecanoyloxy)ethyl]-2-oxa-4,7,11-triazatridecan-13-oate]	
> 128 µg/mL	128 µg/mL (≈ 163 µM)	> 128 µg/mL	128 µg/mL (≈ 163 µM)	128 µg/mL (≈ 163 µM)	128 µg/mL (≈ 163 µM)	> 128 µg/mL	> 128 µg/mL	128 µg/mL (≈ 163 µM)	> 128 µg/mL	> 128 µg/mL	> 128 µg/mL	64 µg/mL (≈ 81.4 µM)	128 µg/mL (≈ 163 µM)	128 µg/mL (≈ 163 µM)	> 128 µg/mL	> 128 µg/mL	> 128 µg/mL	> 128 µg/mL	128 µg/mL (≈ 163 µM)	COc1ccc(Cn2c(=O)ccn([C@@H]3OC([C@H](O)[C@H](NCCCNC(=O)[C@@H](NC(=O)OCc4ccccc4)[C@H](C)O)C(=O)OC(C)(C)C)[C@@H](O)[C@H]3O)c2=O)cc1 (stereo partly drawn) [Example 44, tert-Butyl (5S,12S)-12-[(R)-[(3S,4R,5R)-3,4-dihydroxy-5-(3-(4-methoxybenzyl)-2,4-dioxo-3,4-dihydro-1(2H)-pyrimidinyl)tetrahydro-2-furanyl](hydroxy)methyl]-5-[(1S)-1-hydroxyethyl]-3,6-dioxo-1-phenyl-2-oxa-4,7,11-triazatridecan-13-oate]	
																				COc1ccc(Cn2c(=O)ccn([C@@H]3OC([C@H](O)[C@H](NCCCNC(=O)C(NC(=O)[C@H](CCCNC(=N)N[N+](=O)[O-])NC(=O)N[C@H](C(=O)OCc4ccccc4)C(C)C)[C@@H](C)O)C(=O)OC(C)(C)C)[C@@H](O[Si](C)(C)C(C)(C)C)[C@H]3O[Si](C)(C)C(C)(C)C)c2=O)cc1 (stereo partly drawn) [Example 30, 1-Benzyl 17-(tert-butyl)(2S,6S,9S,16S)-16-[(R)-[(3R,4R,5R)-3,4-bis{[tert-butyl(dimethyl)silyl]oxy}-5-(3-(4-methoxybenzyl)-2,4-dioxo-3,4-dihydro-1(2H)-pyrimidinyl)tetrahydro-2-furanyl](hydroxy)methyl]-6-(3-{[(2,2-dioxido-2lambda˜1˜-diazanyl)(imino)methyl]amino}propyl)-9-[(1S)-1-hydroxyethyl]-2-isopropyl-4,7,10-trioxo-3,5,8,11,15-pentaazaheptadecane-1,17-dioate]	MIC (E. coli GC 4559): > 128 µg/mL; MIC (E. coli GC 4560): 64 µg/mL (≈ 48.7 µM); MIC (E. coli GC 3226): > 128 µg/mL; MIC (S. marcescens GC 4077): 128 µg/mL (≈ 97.4 µM); MIC (C. albicans GC 3066): 64 µg/mL (≈ 48.7 µM); MIC (M. morganii GC 4531): 128 µg/mL (≈ 97.4 µM); MIC (K. pneumoniae GC 4534): 128 µg/mL (≈ 97.4 µM); MIC (E. cloacae GC 3783): 128 µg/mL (≈ 97.4 µM); MIC (P. aeruginosa GC 4532): 64 µg/mL (≈ 48.7 µM); MIC (CNS GC 4537): 128 µg/mL (≈ 97.4 µM); MIC (CNS GC 4538): 128 µg/mL (≈ 97.4 µM); MIC (CNS GC 4547): 128 µg/mL (≈ 97.4 µM); MIC (E. faecalis GC 2242): 64 µg/mL (≈ 48.7 µM); MIC (E. faecalis GC 4555): 64 µg/mL (≈ 48.7 µM); MIC (E. faecalis GC 842): 128 µg/mL (≈ 97.4 µM); MIC (S. aureus GC 1131): 128 µg/mL (≈ 97.4 µM); MIC (S. aureus GC 2216): 128 µg/mL (≈ 97.4 µM); MIC (S. aureus GC 4536): 128 µg/mL (≈ 97.4 µM); MIC (E. coli GC 2203): > 128 µg/mL; MIC (P. aeruginosa GC 2214): 64 µg/mL (≈ 48.7 µM)
> 128 µg/mL	> 128 µg/mL	> 128 µg/mL	128 µg/mL (≈ 199 µM)	128 µg/mL (≈ 199 µM)	128 µg/mL (≈ 199 µM)	> 128 µg/mL	> 128 µg/mL	128 µg/mL (≈ 199 µM)	> 128 µg/mL	> 128 µg/mL	> 128 µg/mL	128 µg/mL (≈ 199 µM)	> 128 µg/mL	> 128 µg/mL	> 128 µg/mL	> 128 µg/mL	> 128 µg/mL	> 128 µg/mL	128 µg/mL (≈ 199 µM)	CCOC(=O)C(NCCCNC(=O)[C@@H](N)CC(C)C)[C@@H](OC(C)=O)[C@H]1O[C@H](n2ccc(=O)[nH]c2=O)[C@H](OC(C)=O)[C@@H]1OC(C)=O (stereo partly drawn) [Example 39, Ethyl (3R)-3-(acetyloxy)-2-[(3-{[(2S)-2-amino-4-methylpentanoyl]amino}propyl)amino]-3-[(2R,3R,4R,5S)-3,4-bis(acetyloxy)-5-(2,4-dioxo-3,4-dihydro-1(2H)-pyrimidinyl)tetrahydro-2-furanyl]propanoate]	
